Laboratory results reported in patent US20220323426A1, “CHOLINERGIC POTENTIATION OF BINOCULAR VISION” (THE ROYAL INSTITUTION FOR THE ADVANCEMENT OF LEARNING / …, priority 2019, published 2022).
Entries after “also recorded” stand apart in the source; their conditions may differ.

Experiments:
[1] = system: binocular rivalry dynamics; assay: Binocular rivalry task, double-blind placebo-controlled crossover, before and 3 h after donepezil or placebo; assay type: in vivo, human
Description: The binocular rivalry task consisted of a dichoptic stimulus where participants viewed a left-tilted grating in one eye and a right-tilted grating in the other for 90 s, continuously indicating via key-press whether they were seeing (1) the left eye's image, (2) the right eye's image, (3) a piecemeal mixture of the two images, or (4) a superimposed mixture of the two images (FIG. 1). This task was used to better characterize the mixed percepts while also encouraging participants not to miscategorize a mixed percept as exclusive.
Binocular rivalry task. A previously developed (Skerswetat et al., 2018) binocular rivalry task was adapted to quantify the fractions and median durations of exclusive, piecemeal, superimposition, and overall mixed percepts (for illustrations, see FIG. 1B). At the beginning of each session, participants were shown images on a document that illustrated the differences between the left-oriented, right-oriented, and superimposition versus piecemeal mixed percepts. Participants were told that they would see a dynamic stimulus during the experiment and that their task was to track what they were seeing, with particular attention to timeliness and accuracy.
Participants were given the option to continuously indicate whether they were seeing either (1) an exclusively left-tilted grating, (2) an exclusively right-tilted grating, (3) a superimposition mixed percept, or (4) a piecemeal mixed percept. Participants used three adjacent keys for the task, using the left to indicate exclusive left-tilt, right for right-tilt, a holding down a combination of the left and right keys for the piecemeal percepts, and the middle key for the superimposition percepts. It was specified that the criterion for exclusive percepts should be ˜90% left or right oriented.
Experimental design and statistical analysis. […] Group assignment was counterbalanced across participants to control for possible session-order effects. The experimenter was not aware of the treatment condition of the two group assignments until after data collection was complete. For safety purposes, the experimenter recorded the participant's systolic blood pressure at baseline and monitored blood pressure levels throughout the experiment.
The general protocol of each experimental block is outlined in FIG. 1A. Each block consisted of two binocular rivalry runs followed by two rivalry replay runs, each lasting 90 s.
Each run (rivalry and replay) began with a dichoptic nonius cross presented inside a 3° oval surrounded by a black-and-white noise (1 cycle/degree) frame (side=10°). The observer was asked to make keypresses to adjust the position of the two frames to calibrate the optimal position for comfortable fusion. After confirmation, the participant was instructed to fixate at a fixation dot (0.2°) and place their hands on the appropriate keys to begin responding to the rivalry task. After a keypress, the dichoptic stimulus appeared and participants began responding to what they were observing on the monitor using the keypress instructions provided at the beginning of each session. Subsequent runs were initiated after a brief break where subjects viewed a mean-gray background screen. […] During the incubation period, subjects were instructed to keep both eyes open and do normal activities such as watching a movie or doing computer work in a well-lit room.
Baseline and posttreatment measurements were drawn from four experimental blocks. A mandatory 2-min break was implemented between each experimental block to prevent fatigue.

visual function = conditions: cited from earlier work
[2] = system: replay rivalry criterion and response latency; assay: Rivalry replay control (criterion for mixed percept and response latency); assay type: in vivo, human; conditions: donepezil 5 mg oral vs placebo; F(1,22)=1.4
Description: To ensure any treatment effects were the result of changes in visual neural activity as opposed to changes in motor or executive function, a rivalry replay control experiment was implemented where participants watched computer-generated videos of simulated binocular rivalry, presented identically to both eyes. […] See FIG. 2 for additional details regarding the plots.
Rivalry replay control. A rivalry replay control condition was used to characterize the criterion for categorizing a percept as mixed and to quantify the latency of binocular rivalry responses (Robertson et al., 2013, 2016). The replay control consisted of computer-generated videos presented binocularly, where the stimulus was oscillated from left-oriented gratings to right-oriented gratings along a continuous scale, such that the midpoint of this oscillation would produce a complete mixture of the two gratings. […]
In addition, the overall rate of rivalry, defined as the total number of switches between the exclusive percepts divided by the run duration (Robertson et al., 2013, 2016) was extracted. In order to quantify the magnitude of the effect of the two treatment conditions relative to baseline, mean posttreatment values were divided by the mean baseline values to obtain post/pre ratios for each dependent variable across both experimental conditions. […]

For `COc1cc2c(cc1OC)C(=O)C(CC1CCN(Cc3ccccc3)CC1)C2` (stereo not drawn) [donepezil], the “overall effect on binocular rivalry dynamics (repeated measures MANOVA of post/pre values)” value ([1]; donepezil 5 mg oral vs placebo, F(1,22)=2.68, p=0.04) was “significantly altered binocular rivalry dynamics”, the “participants with increases in the fraction of mixed visibility” value ([1]; donepezil 5 mg oral, 3 h, 23 participants) was 19 out of 23 and the “individuals exhibiting donepezil-induced increases of 0.50% in fraction of mixed visibility” value ([1]; donepezil 5 mg oral, 3 h, of the 19 participants with increases) was “eight”. For the same molecule, the “decrease of rate of binocular rivalry” value ([1]; po, 5 mg, 3 h) was 36%, the “enhancement of fraction of aggregate mixed visibility during rivalry” value ([1]; po, 5 mg, 3 h) was 43% and the “enhancement of fraction visibility of superimposition percepts” value ([1]; po, 5 mg, 3 h) was 70%. For the same molecule, the “increase of median duration of mixed visibility” value ([1]; po, 5 mg, 3 h) was 20%, the “increase of median duration of piecemeal percepts” value ([1]; po, 5 mg, 3 h) was 49% and the “increase of median duration of superimposition percepts” value ([1]; po, 5 mg, 3 h) was 54%. For the same molecule, the “reduction of fraction of exclusive percepts” value ([1]; po, 5 mg, 3 h) was 59%, the “reduction of fraction of piecemeal percepts” value ([1]; po, 5 mg, 3 h) was 15% and the “reduction of median duration of exclusive percepts” value ([1]; po, 5 mg, 3 h) was 78%. The “effect on monocular visual function using perceptual learning” value (visual function; Chung et al., 2017) was “not useful to improve monocular visual function”, the “effect on perceptual eye dominance changes from short term patching of one eye” value (visual function; Sheynin et al., 2019) was “impede perceptual eye dominance changes” and the “effect on criterion and response latency in rivalry replay control (MANOVA)” value [2] was “no observable differences; also recorded: not significant”.
